Molecules are shown by their SMILES.

The first assay concerns OVCAR5. Description: drug sensitivity score (DSS) from 5-point dose-response viability curve (DSS (area-under-curve based score)); higher = more sensitive (stronger growth inhibition or killing); extreme values may be limits of the assay. As to conditions: exposure time: 72 h; concentration range: 5 concentrations over 10,000-fold range. The method, boiled down:
(§1)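 For the drug sensitivity score, obtained per cell line and drug in Breeze software, larger values mean greater sensitivity. No response corresponds to a score of zero. Ovarian cancer and normal ovarian cells were seeded at 1,500 per well into 384-well plates already holding acoustically dispensed drugs (Echo 550, DMSO or water, five concentrations over a 10,000-fold range) and incubated 3 days at 37°C, 5% CO2. CellTiter-Glo luminescence on a PHERAstar FS gave the viability readout.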
Consider `CN(C)CCOc1ccc(/C(=C(/CCCl)c2ccccc2)c2ccccc2)cc1` [Toremifene], for which the drug sensitivity score was found to be 4.9.
The same measure, in the same setting: the result for `CC(C)C[C@@H](C(=O)N[C@H](C(=O)OC1CCCC1)c1ccccc1)[C@H](O)C(=O)NO` [Tosedostat] reads 8.3; that for `Cc1cc(Nc2cc(N3CCN(C)CC3)nc(Sc3ccc(NC(=O)C4CC4)cc3)n2)n[nH]1` [Tozasertib], 6.1; that for `CC(=O)Nc1cccc(-n2c(=O)n(C3CC3)c(=O)c3c(Nc4ccc(I)cc4F)n(C)c(=O)c(C)c32)c1` [Trametinib], 12.9.
On to `CC1=C(/C=C/C(C)=C/C=C/C(C)=C/C(=O)O)C(C)(C)CCC1` [Tretinoin], for which the drug sensitivity score was found to be 0.
Still for that read-out and setting: with `NC(=S)N/N=C/c1ncccc1N` [Triapine] the figure was 2.6; with `O=c1[nH]c(=O)n([C@H]2C[C@H](O)[C@@H](CO)O2)cc1C(F)(F)F` [Trifluridine], 2.9.
Still for that read-out and setting: with `O=C(CCCCCCC(=O)Nc1ccc([C@H]2O[C@@H](CSc3nc(-c4ccccc4)c(-c4ccccc4)o3)C[C@@H](c3ccc(CO)cc3)O2)cc1)NO` [Tubacin] the figure was 2.4; with `CN1CCc2c(c3ccccc3n2Cc2ccc(C(=O)NO)cc2)C1` [Tubastatin A], 5.2; with `Cc1cc(Nc2ncnc3ccc(NC4=NC(C)(C)CO4)cc23)ccc1Oc1ccn2ncnc2c1` [Tucatinib], 0.
`Nc1cc(F)ccc1NC(=O)c1ccc(CNC(=O)/C=C/c2cccnc2)cc1` [Tucidinostat] yielded a drug sensitivity score of 7.
With `CN[C@@H]1C[C@H]2O[C@@](C)([C@@H]1OC)n1c3ccccc3c3c4c(c5c6ccccc6n2c5c31)C(=O)N[C@H]4O` [UCN-01], the drug sensitivity score came out at 18.1.
For `COC(=O)c1ccc2c(c1)[nH]c1ncnc(NCCCN3CCCCC3)c12` [UM729], the drug sensitivity score was found to be 1.
`COc1cc2c(NC3CCN(C(C)C)CC3)nc(C3CCCCC3)nc2cc1OCCCN1CCCC1` [UNC0638]: the drug sensitivity score turned out to be 3.4.
Still for that read-out and setting: the result for `COc1cc2c(NC3CCN(C(C)C)CC3)nc(N3CCC(F)(F)CC3)nc2cc1OCCCN1CCCC1` [UNC0642] reads 1.
Same read-out and setting: with `O=C(c1ccc(C(=O)N2CCC(N3CCCC3)CC2)c(Nc2ccccc2)c1)N1CCC(N2CCCC2)CC1` [UNC1215] the figure was 0; with `CCCCNc1ncc(C(=O)NCc2ccc(-n3ccnc3)cc2)c(NC2CCC(O)CC2)n1` (stereo unspecified) [UNC2881], 0.6; with `NC(=O)c1cccc(-c2cccc(OC(=O)NC3CCCCC3)c2)c1` [URB597], 0.
On the same count and under the same terms, with `CC(C)Nc1cc(-c2c[nH]c(C(=O)N[C@H](CO)c3cccc(Cl)c3)c2)c(Cl)cn1` [Ulixertinib] the figure was 7.8; with `CC[C@@H]1CN(C(=O)NCC(F)(F)F)C[C@@H]1c1cnc2cnc3[nH]ccc3n12` [Upadacitinib], 0; with `Cn1ncc(Cl)c1-c1cc(C(=O)N[C@H](CN)Cc2ccc(F)c(F)c2)oc1Cl` [Uprosertib], 0.9.
Take `CS(=O)(=O)c1ccc(-c2cnc(N)c(C(=O)Nc3ccccc3)n2)cc1` [VE-821]: the drug sensitivity score is 0.
Regarding `O=C(O)CC1CC(c2ccccc2)=NO1` (stereo unspecified) [VGX-1027], the drug sensitivity score came to 0.
Same read-out and setting: with `C=CC(=O)N1CC/C(=C\c2ccc(F)c([N+](=O)[O-])c2)C(=O)/C(=C/c2ccc(F)c([N+](=O)[O-])c2)C1` [VLX1570] the figure was 17.1.
Still for that read-out and setting: with `CNC(=O)c1ccccc1Nc1cc(Nc2ccc(N3CCOCC3)cc2OC)ncc1C(F)(F)F` [VS-4718] the figure was 8; with `CCCC(CCC)C(=O)O` [Valproic acid], 0; with `CCCCC(=O)OCC(=O)[C@]1(O)Cc2c(O)c3c(c(O)c2[C@@H](O[C@H]2C[C@H](NC(=O)C(F)(F)F)[C@H](O)[C@H](C)O2)C1)C(=O)c1c(OC)cccc1C3=O` [Valrubicin], 6.2.
On the same count and under the same terms, with `COc1cc2/c(=N/c3ccc(Br)cc3F)nc[nH]c2cc1OCC1CCN(C)CC1` [Vandetanib] the figure was 1.5; with `CCc1c(C(=O)C(N)=O)c2c(OCC(=O)O)cccc2n1Cc1ccccc1` [Varespladib], 0; with `C[C@@H]1COC(Nc2ccc3ncnc(Nc4ccc(OCc5nccs5)c(Cl)c4)c3c2)=N1` [Varlitinib], 4.1.
Turning to `Clc1ccc(Nc2nnc(Cc3ccncc3)c3ccccc23)cc1` [Vatalanib], the drug sensitivity score was 0.

The subject of another assay is OVCAR8. The assay is described as above. As to conditions: exposure time: 72 h; concentration range: 5 concentrations over 10,000-fold range. Summed up:
as §1
For `CN(C)CCOc1ccc(/C(=C(/CCCl)c2ccccc2)c2ccccc2)cc1` [Toremifene], the drug sensitivity score is 2.9.
Same read-out and setting: with `CC(C)C[C@@H](C(=O)N[C@H](C(=O)OC1CCCC1)c1ccccc1)[C@H](O)C(=O)NO` [Tosedostat] the figure was 6.9; with `Cc1cc(Nc2cc(N3CCN(C)CC3)nc(Sc3ccc(NC(=O)C4CC4)cc3)n2)n[nH]1` [Tozasertib], 6.5; with `CC(=O)Nc1cccc(-n2c(=O)n(C3CC3)c(=O)c3c(Nc4ccc(I)cc4F)n(C)c(=O)c(C)c32)c1` [Trametinib], 3.4.
Same read-out and setting: with `CC1=C(/C=C/C(C)=C/C=C/C(C)=C/C(=O)O)C(C)(C)CCC1` [Tretinoin] the figure was 0.
On the same count and under the same terms, the result for `NC(=S)N/N=C/c1ncccc1N` [Triapine] reads 4.9.
Turning to `O=c1[nH]c(=O)n([C@H]2C[C@H](O)[C@@H](CO)O2)cc1C(F)(F)F` [Trifluridine], the drug sensitivity score is 2.7.
Take `O=C(CCCCCCC(=O)Nc1ccc([C@H]2O[C@@H](CSc3nc(-c4ccccc4)c(-c4ccccc4)o3)C[C@@H](c3ccc(CO)cc3)O2)cc1)NO` [Tubacin]: the drug sensitivity score came to 5.6.
Still for that read-out and setting: with `CN1CCc2c(c3ccccc3n2Cc2ccc(C(=O)NO)cc2)C1` [Tubastatin A] the figure was 4.6.
On the same count and under the same terms, with `Cc1cc(Nc2ncnc3ccc(NC4=NC(C)(C)CO4)cc23)ccc1Oc1ccn2ncnc2c1` [Tucatinib] the figure was 0; with `Nc1cc(F)ccc1NC(=O)c1ccc(CNC(=O)/C=C/c2cccnc2)cc1` [Tucidinostat], 8.
Still for that read-out and setting: with `CN[C@@H]1C[C@H]2O[C@@](C)([C@@H]1OC)n1c3ccccc3c3c4c(c5c6ccccc6n2c5c31)C(=O)N[C@H]4O` [UCN-01] the figure was 18.8.
For the molecule `COC(=O)c1ccc2c(c1)[nH]c1ncnc(NCCCN3CCCCC3)c12` [UM729], the drug sensitivity score was 1.6.
Consider `COc1cc2c(NC3CCN(C(C)C)CC3)nc(C3CCCCC3)nc2cc1OCCCN1CCCC1` [UNC0638], for which the drug sensitivity score worked out at 3.6.
As for `COc1cc2c(NC3CCN(C(C)C)CC3)nc(N3CCC(F)(F)CC3)nc2cc1OCCCN1CCCC1` [UNC0642], the drug sensitivity score stood at 0.7.

For the origin of these results see the supplement of paper PMC11616607.
